These results are taken from patent US5098934A, “Method of relieving pain with mercaptoalkanamides” (Roussel Uclaf, priority 1983, dated 1992).

In the experiment the target is T1, Enkephalinase (Rattus norvegicus, UniProt P07861).
T1 construct: from tissue; host or cells: rat striatum, membrane (particulate) fraction
T1 sequence (P07861 1-750): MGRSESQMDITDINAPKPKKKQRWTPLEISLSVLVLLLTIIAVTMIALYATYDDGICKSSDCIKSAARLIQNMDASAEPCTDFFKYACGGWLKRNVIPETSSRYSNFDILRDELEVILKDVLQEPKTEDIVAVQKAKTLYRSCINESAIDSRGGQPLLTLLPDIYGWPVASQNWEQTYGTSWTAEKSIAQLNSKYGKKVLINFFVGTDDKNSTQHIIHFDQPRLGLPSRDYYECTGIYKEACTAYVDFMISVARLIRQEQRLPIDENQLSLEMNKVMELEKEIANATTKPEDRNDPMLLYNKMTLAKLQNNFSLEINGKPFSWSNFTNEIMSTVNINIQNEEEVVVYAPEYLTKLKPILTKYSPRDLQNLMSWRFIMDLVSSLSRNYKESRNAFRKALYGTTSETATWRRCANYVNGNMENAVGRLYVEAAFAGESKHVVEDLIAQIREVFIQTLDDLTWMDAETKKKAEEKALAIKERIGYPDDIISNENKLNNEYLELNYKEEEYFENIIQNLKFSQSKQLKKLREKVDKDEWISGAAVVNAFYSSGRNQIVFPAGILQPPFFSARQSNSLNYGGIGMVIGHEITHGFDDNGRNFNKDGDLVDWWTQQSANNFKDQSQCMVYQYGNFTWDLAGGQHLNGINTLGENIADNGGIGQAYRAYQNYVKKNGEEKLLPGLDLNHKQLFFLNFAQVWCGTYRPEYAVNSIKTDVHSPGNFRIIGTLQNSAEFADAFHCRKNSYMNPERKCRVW
Kind of experiment: Inhibition of enkephalinase (rat striatum membrane fraction, tritiated leucine-enkephaline). The experiment is classed as biochemical, rats. Conditions: 20 nanomole tritiated leucine-enkephaline, 1 mM puromycin, 25° C., 15 minutes, pH 7.4, read-out: Enkaphalinase inhibition CI50 (50% inhibitory concentration). The method, then:
Enkephalinase activity was determined in a striatum membrane fraction of rats. The striatum was placed in ice and was homogenized in buffered 0.05M Tris with a pH of 7.4 (20 times the volume) and after a first centrifugation at 1000 g, the particular fraction obtained was subjected to two centrifugations for 10 minutes at 20,000 g. The culot was then suspended in buffered Tris and kept at 4° C. The amount of proteins was determined by the Comassie blue method.
After preincubation at 25° C. for 15 minutes, an aliquot of proteins was incubated at 25° C. for 15 minutes in the presence of 20 nanomole of tritiated leucine-enkephaline (against the first amino acid) previously purified, of 1 mM of puromycin and the test product in buffered Tris. The hydrolysis reaction was stopped by addition of 0.2N hydrochloric acid and the incubate was subjected to a deproteinization by heating at 95° C. for 15 minutes. Under these conditions, the kinetic reaction was linear. The tritiated metabolites obtained by hydrolysis were separated from enkephaline by chromatography over a column of porapak Q and elution with buffered Tris whereby enkephaline was retained in the column and was released in the following ethanolic phase. The activity of the different products was expressed in 50% inhibitory concentration called CI50 in Table II.
`CC(=O)SCC(Cc1ccccc1)C(=O)Nc1ccccc1` (stereo not drawn) [Example 1, Ethanethioate of S-[3-oxo-3-phenylamino-2-benzyl-propyl]]: the IC50 amounted to 10 µM.

As to `CC(=O)SCC(Cc1ccccc1)C(=O)Nc1ccc(Cl)cc1` (stereo not drawn) [Example 3, Ethanethioate of S-[3-(4-chlorophenylamino)-3-oxo-2-benzylpropyl]], the IC50 is 1 µM.

`O=C(Nc1ccncc1)C(CS)Cc1ccccc1` (stereo not drawn) [Example 30, N-(4-pyridinyl) α-(mercaptomethyl)-benzene-propanamide]: the IC50 was 0.1 µM.

Turning to `COc1cccc(NC(=O)C(CS)Cc2ccccc2)c1` (stereo not drawn) [Example 38, N-(3-methoxyphenyl) α-(mercaptomethyl)-benzene-propanamide], the IC50 worked out at 0.06 µM.

For `COc1ccc(NC(=O)C(CS)Cc2ccccc2)cc1` (stereo not drawn) [Example 36, N-(4-methoxyphenyl) α-(mercaptomethyl)-benzene-propanamide], the IC50 stood at 0.05 µM.

`O=C(Nc1ccc(Cl)cc1)C(CS)Cc1ccccc1` (stereo not drawn) [Example 4, N-(4-chlorophenyl)-α-mercaptomethyl-benzene-propanamide]: the IC50 was 1 µM.

For the compound `O=C(Nc1ccccc1)C(CS)Cc1ccccc1` (stereo not drawn) [Example 2, α-mercaptomethyl-N-phenyl-benzene propanamide], the IC50 worked out at 1 µM.
